The text below walks through data of patent EP1283052A1, “Pharmaceutical composition containing caspase-8 and /or caspase-9 useful for overcoming glucocorticoid- and cancer therapy-induced apoptosis of tumours” (Deutsches Krebsforschungszentrum Stiftung des öffentlichen …, priority 2001, dated 2003).

In this experiment the test system is P5 cells. Put plainly: Specific apoptosis in P5 cells stably transfected with pcDNA3 or FADD-DN. Format: cell-based, human. Conditions: 48 h, cisplatin 2 µg/ml; Fig. 2c right. Here is the method:
• (a) Left: P5 an CEM cells were treated with cisplatin (1-5 µg/ml) in the absence or presence of DEX (1 µM) as indicated. Proteins were extracted and expression of CD95-L, TRAIL or TNF-α was detected by Western blot analysis. The size of the proteins in kDa is indicated. Right: HeLa and P5 were treated with CD95 agonistic antibody αAPO-1 (CD95, 1 µg/ml), recombinant TRAIL protein (TRAIL, 100 ng/ml) or recombinant TNF-α protein (TNF-α, 100 ng/ml) in the absence (white bars) or presence (black bars) of DEX (1 µM). 24 h later the percentage of apoptosis was determined by annexin-staining and FACS-analysis in untreated (CO) and stimulated cells at the time points indicated. • (b) P693 and CEM cells were treated with cisplatin (2 µg/ml) in the absence or presence of DEX as indicated. 24 and 48 h following treatment cells were lysed and caspase-8 activity was determined by a fluorescent caspase-8 assay and spectroscopy. • (c) P5 cells were stable transfected with empty vector (pcDNA3), or pcDNA3 vector encoding dominant negative FADD protein (FADD-DN). Proteins were extracted from both cell lines and expression of wildtype (WT) and FADD-DN (DN) was detected by Western blot. Left: Stable transfected P5 cells were treated with αAPO-1 (1 µg/ml) and 24 h later apoptosis was determined by staining with annexin/propidium iodide and flow-cytometry. […]

In the case of `N.N.[Cl][Pt][Cl]` [cisplatin], the cisplatin-induced apoptosis result is given as “about 80%”.
